{"source": "patent US20180255777A1", "about": "“Metal Ion Complex-Modified Layered Silicates” (priority 2017, published 2018)", "tested_on": "E. coli", "experiment": "Disk diffusion method, zone of inhibition", "type": "cell-based, Escherichia coli", "experimental": "Working solutions were prepared by dissolving of N-alkylimidazoles (100 mg) in ethanol (50 μL). Blank disks were impregnated with 10 μL of solution and the disks placed on nutrient agar containing a confluent E. coli culture. The plates were incubated at 37° C. for 18-24 h and antimicrobial activity determined by measuring the zone of inhibition. The experiments were performed in triplicate.\nThe antibacterial activity of N-alkylimidazoles was investigated by the disk diffusion and broth methods against E. coli as a model microorganism.", "data": [{"substance": "silver(I)-N-octylimidazole complex [Ag(octlm)2]", "values": [{"measurement": "antibacterial activity (in words)", "setting": "disk diffusion against E. coli, comparison across alkyl chain lengths", "value": "superior activity"}, {"measurement": "Zone of inhibition diameter", "setting": "disk diffusion, nutrient agar with confluent E. coli culture, 37° C., 18-24 h, triplicate", "value": "21 ± 1.4", "unit": "mm"}]}]}
